# Data as given in publication PMC9928118, “Funneling modulatory peptide design with generative models: Discovery and characterization of disruptors of calcineurin protein-protein interactions” (PLOS Computational Biology, 2023).
# Test system: GST-tagged Cn
# Experiment: PEPperPRINT peptide microarray binding assay with GST-tagged Cn
# How it was run: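 Qualitative binding: peptides printed on a PEPperPRINT microarray were incubated overnight at 4 °C with 1 mg/ml GST-tagged Cn, then detected with Alexa-Fluor 647 anti-GST antibody. Log fluorescence was baseline-corrected, averaged over duplicate spots, Z-normalized and averaged across five repeats.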
# [1] = GST-tagged Cn, max over the chip locations
# [2] = GST-tagged Cn, mean over the chip locations
# [3] = GST-tagged Cn, max over the spots named in Location on chip
# [4] = GST-tagged Cn, mean over the spots named in Location on chip
# [5] = GST-tagged Cn, max over the spots on the chip (two locations)
# [6] = GST-tagged Cn, mean over the spots on the chip (two locations)
# [7] = max over the chip locations listed for the peptide (two spots)
# [8] = mean over the chip locations listed for the peptide (two spots)
# [9] = max over the spots listed under Location on chip
# [10] = mean over the spots listed under Location on chip
# [11] = GST-tagged Cn, max over the chip spots listed under Location on chip
# [12] = GST-tagged Cn, mean over the chip spots listed under Location on chip
sequence,measurement,setting,value
ASMSPPCINIDYAPIS [SeqRBM_1607],Chip Fluorescence (max),[1],-0.1231
same,Chip Fluorescence (mean),[2],-1.5167
TFWSNPQFKVSLEEPD [SeqRBMlowT_2967],Chip Fluorescence (max),[3],1.583
same,Chip Fluorescence (mean),[4],-0.5694
PAFFCEGFTIQADSLD [Seqshuffled_9825],Chip Fluorescence (max),[5],1.294
same,Chip Fluorescence (mean),[6],0.4829
PGLYDNALGIEQFTLS [SeqRBMlowT_2874],Chip Fluorescence (max),[7],13.8972
same,Chip Fluorescence (mean),[8],1.628
PGDDQPGIIVHPCEEP [SeqRBMlowT_1949],Chip Fluorescence (max),[9],2.883
same,Chip Fluorescence (mean),[10],1.506
TFWTNPQYRLNIIDPD [SeqRBMlowT_94],Chip Fluorescence (max),[5],1.251
same,Chip Fluorescence (mean),[6],-0.6992
KKMAPPCISVHPPEED [SeqRBMlowT_5025],Chip Fluorescence (max),[11],0.441
same,Chip Fluorescence (mean),[12],-1.335
ARPPNAAFVLDQETTY [Seqshuffled_9990],Chip Fluorescence (max),[5],1.0396
same,Chip Fluorescence (mean),[6],0.6258
TFWTNPQFKITLTDPD [SeqRBMlowT_9027],Chip Fluorescence (max),[5],1.278
same,Chip Fluorescence (mean),[6],-0.7291
LTWTSLRYSVNDDKNT [Seqshuffled_9363],Chip Fluorescence (max),[7],15.2815
same,Chip Fluorescence (mean),[8],4.411
ASDDIPTVVIHPPEED [SeqSLC4A7_Pan_troglodytes],Chip Fluorescence (max),[9],2.587
same,Chip Fluorescence (mean),[10],-0.184
ATSFVPQLASTLFSLW [SeqRBM_1383],Chip Fluorescence (max),[11],0.6271
same,Chip Fluorescence (mean),[12],-0.8819
TFWSNPQFRITLEDPD [SeqRBMlowT_45],Chip Fluorescence (max),[7],4.041
same,Chip Fluorescence (mean),[8],0.007175
ESLWIPNATPTNFGVY [SeqRBM_4910],Chip Fluorescence (max),[3],1.643
same,Chip Fluorescence (mean),[4],0.8461
THTKISSFRGDAEPAP [Seqshuffled_9494],Chip Fluorescence (max),[1],0.1716
same,Chip Fluorescence (mean),[2],-0.4714
TFWTNPQFRLKLVDVD [SeqRBMlowT_5534],Chip Fluorescence (max),[7],3.886
same,Chip Fluorescence (mean),[8],0.4656
TFWTNPQFKITLEELD [SeqRBMlowT_5669],Chip Fluorescence (max),[9],2.6605
same,Chip Fluorescence (mean),[10],0.5654
STSSLPTFSFSSPASS [SeqRBMlowT_1605],Chip Fluorescence (max),[1],0.1343
same,Chip Fluorescence (mean),[2],-0.9005
TFHINPQLHLIVSDAD [SeqCAPN11_Daphnia_magna],Chip Fluorescence (max),[1],-0.5586
same,Chip Fluorescence (mean),[2],-0.9234
ASEANPEITITPAELP [SeqRBMlowT_410],Chip Fluorescence (max),[5],1.116
same,Chip Fluorescence (mean),[6],-0.403
TFWTNPQFKVSLEEED [SeqRBMlowT_1125],Chip Fluorescence (max),[9],2.918
same,Chip Fluorescence (mean),[10],1.097
TFWINPQIVITLADED [SeqRBMlowT_2933],Chip Fluorescence (max),[9],2.77
same,Chip Fluorescence (mean),[10],0.3523
TEWNNPQQIVGPTEGD [SeqRBM_3582],Chip Fluorescence (max),[1],0.1516
same,Chip Fluorescence (mean),[2],-1.002
RCISAYKLDSVMMDPS [Seqrandom_9957],Chip Fluorescence (max),[7],3.463
same,Chip Fluorescence (mean),[8],0.1448
TFWSNPQFKITLEDPD [SeqRBMlowT_3183],Chip Fluorescence (max),[1],0.1109
same,Chip Fluorescence (mean),[2],-0.8373
DSLYQEVLGIGSFSLA [SeqCRZ1_Hypocrea_virens],Chip Fluorescence (max),[9],2.584
same,Chip Fluorescence (mean),[10],-0.1117
SVWENATVRFNFFPDN [Seqshuffled_9917],Chip Fluorescence (max),[9],3.124
same,Chip Fluorescence (mean),[10],1.438
TFWTNPQFRLKLIDPD [SeqRBMlowT_9197],Chip Fluorescence (max),[3],1.422
same,Chip Fluorescence (mean),[4],-0.7542
KKMAPPCINIDPAPTS [SeqRBMlowT_307],Chip Fluorescence (max),[1],0.2085
same,Chip Fluorescence (mean),[2],-1.259
KAYMCPYMQFIDGGRK [SeqRBMlowT_9280],Chip Fluorescence (max),[3],1.462
same,Chip Fluorescence (mean),[4],1.063
GTETTPSVVVHVCEDD [SeqRBMlowT_112],Chip Fluorescence (max),[7],4.01
same,Chip Fluorescence (mean),[8],1.52
STSSLPTFSFSSPVPS [SeqRBMlowT_2358],Chip Fluorescence (max),[1],-0.2537
same,Chip Fluorescence (mean),[2],-3.06
ADEAVPEITITPAELP [SeqRBMlowT_1267],Chip Fluorescence (max),[9],2.637
same,Chip Fluorescence (mean),[10],0.3175
SSAAPPAINIDFAPTN [SeqRBMlowT_5045],Chip Fluorescence (max),[1],-0.1972
same,Chip Fluorescence (mean),[2],-1.194
KMAKFLINLSAEKSVM [Seqrandom_9965],Chip Fluorescence (max),[5],1.232
same,Chip Fluorescence (mean),[6],-0.1213
STSSLPTFSFSSPVSH [SeqRBMlowT_1620],Chip Fluorescence (max),[9],3.347
same,Chip Fluorescence (mean),[10],0.3099
LKDEIPEVRLNIISAL [SeqRBMlowT_1072],Chip Fluorescence (max),[9],2.998
same,Chip Fluorescence (mean),[10],0.7654
GGLRSDSVTMIDQGAY [SeqRBM_2699],Chip Fluorescence (max),[9],2.739
same,Chip Fluorescence (mean),[10],1.043
TFWMNPQFKVKLEEVD [SeqRBMlowT_6848],Chip Fluorescence (max),[3],1.645
same,Chip Fluorescence (mean),[4],1.054
SDEAGVRIVITVTEAP [SeqRBMlowT_9535],Chip Fluorescence (max),[5],1.153
same,Chip Fluorescence (mean),[6],-0.5729
RNPGTFPLELEGHKKQ [SeqRBMlowT_8768],Chip Fluorescence (max),[9],3.224
same,Chip Fluorescence (mean),[10],1.049
RNPGQPLLELEGHSAP [SeqRBMlowT_7742],Chip Fluorescence (max),[7],5.135
same,Chip Fluorescence (mean),[8],0.4912
KSKLIPKLSFQSPVHH [SeqRBMlowT_3425],Chip Fluorescence (max),[1],0.2205
same,Chip Fluorescence (mean),[2],-0.7902
LKDQFPKVRLNIIDAP [SeqRBM_543],Chip Fluorescence (max),[9],2.925
same,Chip Fluorescence (mean),[10],0.6756
TFWSNPQFTITLAEPD [SeqRBMlowT_8092],Chip Fluorescence (max),[11],0.3751
same,Chip Fluorescence (mean),[12],-0.8998
LKDEFPEVRLNIISNL [SeqRBMlowT_1004],Chip Fluorescence (max),[5],1.029
same,Chip Fluorescence (mean),[6],0.2404
DSLEGATIVITLTEGK [SeqRBM_8933],Chip Fluorescence (max),[7],3.74
same,Chip Fluorescence (mean),[8],0.5914
ADEAQPGIVVHVCELP [SeqRBMlowT_119],Chip Fluorescence (max),[3],1.734
same,Chip Fluorescence (mean),[4],-0.1242
ASTSTFPQQQTAHKKQ [SeqBOI2_Podospora_anserina],Chip Fluorescence (max),[1],-0.0111
same,Chip Fluorescence (mean),[2],-1.452
KKMSPPCINIDPAPEN [SeqRBMlowT_2410],Chip Fluorescence (max),[5],1.08
same,Chip Fluorescence (mean),[6],-0.8311
GSSSSPPVDLKIPQVR [SeqRBMlowT_8820],Chip Fluorescence (max),[5],1.178
same,Chip Fluorescence (mean),[6],0.2864
GLCDSSKVNLVDAGPV [Seqshuffled_9731],Chip Fluorescence (max),[5],1.002
same,Chip Fluorescence (mean),[6],0.1299
TFWANPQYKIHLEEED [SeqRBMlowT_4653],Chip Fluorescence (max),[7],4.098
same,Chip Fluorescence (mean),[8],0.694
PALESPRIEITSCLGL [SeqNFATC1_Homo_sapiens],Chip Fluorescence (max),[3],1.48
same,Chip Fluorescence (mean),[4],0.3949
RNPGSPTLELNGHSGG [SeqRBM_9695],Chip Fluorescence (max),[5],1.159
same,Chip Fluorescence (mean),[6],-0.3352
STSSLPTFSFSPPQPT [SeqRBMlowT_3908],Chip Fluorescence (max),[9],2.68
same,Chip Fluorescence (mean),[10],0.3277
RNPGQALLTLRGHKKQ [SeqRBMlowT_5826],Chip Fluorescence (max),[5],1.2153
same,Chip Fluorescence (mean),[6],0.1411
TFWTNPQFKITLEEPD [SeqRBMlowT_951],Chip Fluorescence (max),[9],2.6
same,Chip Fluorescence (mean),[10],0.9758
PSDDQPGIVVHPCEED [SeqRBMlowT_365],Chip Fluorescence (max),[3],1.806
same,Chip Fluorescence (mean),[4],0.4598
TFHLNPQYRITLEDPD [SeqCAPN11_Daphnia_magna_3],Chip Fluorescence (max),[3],1.7985
same,Chip Fluorescence (mean),[4],0.6671
STSSLPTFSFSSPLPS [SeqRBMlowT_3929],Chip Fluorescence (max),[3],1.5
same,Chip Fluorescence (mean),[4],-1.084
TFWTNPQFKVKLTDPD [SeqRBMlowT_2929],Chip Fluorescence (max),[1],-0.3202
same,Chip Fluorescence (mean),[2],-2.672
KAYMNPFMQFIDGGRR [SeqRBMlowT_560],Chip Fluorescence (max),[7],4.3098
same,Chip Fluorescence (mean),[8],0.3269
KKDVPPKILIEPPREF [SeqRBM_6642],Chip Fluorescence (max),[11],0.9085
same,Chip Fluorescence (mean),[12],-0.7336
TFWTNPQYRIKLEEPD [SeqRBMlowT_34],Chip Fluorescence (max),[1],0.1832
same,Chip Fluorescence (mean),[2],-0.5691
RVLECPSIRITSISPT [SeqNFATC4_Homo_sapiens],Chip Fluorescence (max),[1],0.1768
same,Chip Fluorescence (mean),[2],-0.8782
TFWMNPQFRITLDDPD [SeqRBMlowT_69],Chip Fluorescence (max),[9],3.266
same,Chip Fluorescence (mean),[10],0.639
GDYMQGTLQAETGEHD [Seqshuffled_9624],Chip Fluorescence (max),[3],1.494
same,Chip Fluorescence (mean),[4],0.7951
TFWTNPQFVTLVKDGD [SeqRBM_8117],Chip Fluorescence (max),[5],1.011
same,Chip Fluorescence (mean),[6],-0.2929
LKDEVPEVRLNIISSL [SeqRBMlowT_4107],Chip Fluorescence (max),[11],0.9435
same,Chip Fluorescence (mean),[12],-0.1625
PLGTQPGIVVHVCELN [SeqRBMlowT_356],Chip Fluorescence (max),[7],4.334
same,Chip Fluorescence (mean),[8],3.231
FNSWRQVPLWSPEFHT [SeqRBM_9832],Chip Fluorescence (max),[5],1.192
same,Chip Fluorescence (mean),[6],0.531
TFWTNPQYRIKLEEED [SeqRBMlowT_1298],Chip Fluorescence (max),[3],1.462
same,Chip Fluorescence (mean),[4],0.439
KTGMATDMQFNPIEQH [Seqshuffled_2687],Chip Fluorescence (max),[11],0.7078
same,Chip Fluorescence (mean),[12],0.0887
STSSLPTFSFSSPQPS [SeqRBMlowT_3925],Chip Fluorescence (max),[5],1.1241
same,Chip Fluorescence (mean),[6],-0.7201
TFWTNPQYRITLEDVD [SeqRBMlowT_4237],Chip Fluorescence (max),[5],1.081
same,Chip Fluorescence (mean),[6],0.5254
TFWTNPQFRITLEEVD [SeqRBMlowT_245],Chip Fluorescence (max),[9],2.7449
same,Chip Fluorescence (mean),[10],0.8824
